In article PMC2994747, “Molecular Characterization of c-Abl/c-Src Kinase Inhibitors Targeted against Murine Tumour Progenitor Cells that Express Stem Cell Markers” (PLoS ONE, 2010):

Tests used:
Assay in all cases: Whole genome expression analysis (Affymetrix microarray)
GammaA3 = assay type: cell-based, mouse
Procedure: (§1) The cells were harvested and RNA was isolated using RNeasy Mini Kit (Qiagen, Hilden, Germany) according to the instructions of the manufacturer. The isolated RNA (250 ng) was processed further using standard protocols as described recently with the exception of the 3′ IVT Express Kit (Affymetrix, High Wycombe, UK) that was utilized according to instructions. Quality control of cRNA was done with the Agilent 2100 Bioanalyzer (Agilent Tech according to manufacturer's protocols. Following fragmentation, cRNA of each sample was hybridized to Affymetrix GeneChip® Mouse Genome 430 2.0 or Human Genome U133 Plus 2.0 and scanned with an Affymetrix 3000 7G scanner.
(§2) The resultant data was normalized by Probe Logarithmic Intensity Error Estimation (PLIER) algorithm. Statistical analysis was carried out with the ArrayTrack software (National Center for Toxicological Research/FDA, Jefferson, AR, USA) using SAM algorithm.

A549 = assay type: cell-based, human
Procedure: as §1, §2

CaCo2 = assay type: cell-based, human
Procedure: as §1, §2

HepG2 = assay type: cell-based, human
Procedure: as §1, §2

[1] = IC50 concentration, 96 h, SAM FDR<0.01, FC>2

Fc1ccccc1CNc1ncnc2c1cnn2CC(Cl)c1ccc(Br)cc1 (centres unmarked) [Si162]
Srf (serum response factor) regulated gene, Si162 vs Ktr FC (GammaA3): -1.12 | Tec (tec protein tyrosine kinase) regulated gene, Si162 vs Ktr FC (GammaA3): 3.51 | Tgfb2 (transforming growth factor, beta 2) regulated gene, Si162 vs Ktr FC (GammaA3): -1.69 | Tnc (tenascin C) regulated gene, Si162 vs Ktr FC (GammaA3): -1.32 | Zyx (zyxin) regulated gene, Si162 vs Ktr FC (GammaA3): -1.59 | Significantly regulated genes, total (number) (GammaA3; IC50 concentration, 96 h): more than 3500 | Significantly differentially regulated genes, downregulated (number) (GammaA3; [1]): 1139 | Significantly differentially regulated genes, upregulated (number) (GammaA3; [1]): 2453 | Acta2 (actin, alpha 2, smooth muscle, aorta) regulated gene, Si162 vs Ktr FC (A549): 2.46 | Birc5 (baculoviral IAP repeat-containing 5) regulated gene, Si162 vs Ktr FC (A549): -6.60 | Capn12 (calpain 12) regulated gene, Si162 vs Ktr FC (A549): 1.16 | Ccna2 (cyclin A2) regulated gene, Si162 vs Ktr FC (A549): -6.93 | Ccnb1 (cyclin B1) regulated gene, Si162 vs Ktr FC (A549): -5.43 | Ccnb2 (cyclin B2) regulated gene, Si162 vs Ktr FC (A549): -6.15 | Cdc2 (cell division cycle 2 (Cdk1)) regulated gene, Si162 vs Ktr FC (A549): -7.06 | Cdh1 (cadherin 1, type 1, E-cadherin (epithelial)) regulated gene, Si162 vs Ktr FC (A549): 1.36 | Cdkn1a (cyclin-dependent kinase inhibitor 1A (p21Cip1)) regulated gene, Si162 vs Ktr FC (A549): 2.54 | Cdkn3 (cyclin-dependent kinase inhibitor 3) regulated gene, Si162 vs Ktr FC (A549): -5.90 | Ceacam6 (carcinoembryonic antigen-related cell adhesion molecule 6) regulated gene, Si162 vs Ktr FC (A549): 3.24 | Cenpa (centromere protein A) regulated gene, Si162 vs Ktr FC (A549): -6.17 | Ctsb (cathepsin B) regulated gene, Si162 vs Ktr FC (A549): 1.38 | Dgka (diacylglycerol kinase, alpha 80kDa) regulated gene, Si162 vs Ktr FC (A549): 1.92 | E2F1 (E2F transcription factor 1) regulated gene, Si162 vs Ktr FC (A549): -6.54 | Fas (Fas (TNF receptor superfamily, member 6)) regulated gene, Si162 vs Ktr FC (A549): 2.18 | Fn1 (fibronectin 1) regulated gene, Si162 vs Ktr FC (A549): 1.40 | Gadd45a (growth arrest and DNA-damage-inducible, alpha) regulated gene, Si162 vs Ktr FC (A549): 1.46 | Gsk3b (glycogen synthase kinase 3 beta) regulated gene, Si162 vs Ktr FC (A549): 1.51 | Inpp5d (inositol polyphosphate-5-phosphatase, 145kDa) regulated gene, Si162 vs Ktr FC (A549): 2.27 | Itgb4 (integrin, beta 4) regulated gene, Si162 vs Ktr FC (A549): 1.48 | Jun (jun oncogene) regulated gene, Si162 vs Ktr FC (A549): 1.36 | Mdm2 (Mdm2 p53 binding protein homolog (mouse)) regulated gene, Si162 vs Ktr FC (A549): 1.96 | Plk1 (polo-like kinase 1 (Drosophila)) regulated gene, Si162 vs Ktr FC (A549): -2.12 | Ptgs2 (prostaglandin-endoperoxide synthase 2) regulated gene, Si162 vs Ktr FC (A549): 1.27 | Tgfb1i1 (transforming growth factor beta 1 induced transcript 1) regulated gene, Si162 vs Ktr FC (A549): 1.15 | Tuba1a (tubulin, alpha 1a) regulated gene, Si162 vs Ktr FC (A549): 1.06 | Vtn (vitronectin) regulated gene, Si162 vs Ktr FC (A549): 4.54 | Significantly differentially regulated genes, downregulated (number) (A549; [1]): 472 | Significantly differentially regulated genes, upregulated (number) (A549; [1]): 785 | Cav1 (caveolin 1, caveolae protein, 22kDa) regulated gene, Si162 vs Ktr FC (CaCo2): 2.45 | Ceacam6 (carcinoembryonic antigen-related cell adhesion molecule 6) regulated gene, Si162 vs Ktr FC (CaCo2): 1.49 | Mmp1 (matrix metallopeptidase 1 (interstitial collagenase)) regulated gene, Si162 vs Ktr FC (CaCo2): 1.71 | Pmaip1 (phorbol-12-myristate-13-acetate-induced protein 1 (Noxa)) regulated gene, Si162 vs Ktr FC (CaCo2): 1.12 | Tuba1a (tubulin, alpha 1a) regulated gene, Si162 vs Ktr FC (CaCo2): 1.01 | Vim (vimentin) regulated gene, Si162 vs Ktr FC (CaCo2): 1.80 | Significantly differentially regulated genes, downregulated (number) (CaCo2; [1]): 6 | Significantly differentially regulated genes, upregulated (number) (CaCo2; [1]): 75 | Akt2 (v-akt murine thymoma viral oncogene homolog 2) regulated gene, Si162 vs Ktr FC (HepG2): -4.47 | Bcl2l1 (BCL2-like 1) regulated gene, Si162 vs Ktr FC (HepG2): 1.08 | Birc5 (baculoviral IAP repeat-containing 5) regulated gene, Si162 vs Ktr FC (HepG2): -4.98 | Capn2 (calpain 2, (m/II) large subunit) regulated gene, Si162 vs Ktr FC (HepG2): 2.34 | Casp3 (caspase 3, apoptosis-related cysteine peptidase) regulated gene, Si162 vs Ktr FC (HepG2): 1.08 | Casp6 (caspase 6, apoptosis-related cysteine peptidase) regulated gene, Si162 vs Ktr FC (HepG2): 1.01 | Cdc2 (cell division cycle 2 (Cdk1)) regulated gene, Si162 vs Ktr FC (HepG2): -5.34 | Cdh1 (cadherin 1, type 1, E-cadherin (epithelial)) regulated gene, Si162 vs Ktr FC (HepG2): 1.32 | Cdkn1a (cyclin-dependent kinase inhibitor 1A (p21Cip1)) regulated gene, Si162 vs Ktr FC (HepG2): 1.62 | Cdkn2a (cyclin-dependent kinase inhibitor 2A (p16)) regulated gene, Si162 vs Ktr FC (HepG2): 2.03 | Cdkn2b (cyclin-dependent kinase inhibitor 2B (p15)) regulated gene, Si162 vs Ktr FC (HepG2): 3.43 | Cenpa (centromere protein A) regulated gene, Si162 vs Ktr FC (HepG2): -4.35 | Egfr (epidermal growth factor receptor) regulated gene, Si162 vs Ktr FC (HepG2): 1.36 | Fas (Fas (TNF receptor superfamily, member 6)) regulated gene, Si162 vs Ktr FC (HepG2): 2.46 | Grb10 (growth factor receptor-bound protein 10) regulated gene, Si162 vs Ktr FC (HepG2): 1.12 | Jun (jun oncogene) regulated gene, Si162 vs Ktr FC (HepG2): 1.14 | Mdm2 (Mdm2 p53 binding protein homolog (mouse)) regulated gene, Si162 vs Ktr FC (HepG2): 1.15 | Mmp3 (matrix metallopeptidase 3 (stromelysin 1, progelatinase)) regulated gene, Si162 vs Ktr FC (HepG2): 4.17 | Pdgfrb (platelet-derived growth factor receptor, beta polypeptide) regulated gene, Si162 vs Ktr FC (HepG2): -4.81 | Pmaip1 (phorbol-12-myristate-13-acetate-induced protein 1 (Noxa)) regulated gene, Si162 vs Ktr FC (HepG2): 1.37 | Tgfb1i1 (transforming growth factor beta 1 induced transcript 1) regulated gene, Si162 vs Ktr FC (HepG2): 1.86 | Tuba1a (tubulin, alpha 1a) regulated gene, Si162 vs Ktr FC (HepG2): 4.28 | Differentially expressed genes, total (number) (HepG2; IC50 concentration, 96 h): more than 1400 | Significantly differentially regulated genes, downregulated (number) (HepG2; [1]): 707 | Significantly differentially regulated genes, upregulated (number) (HepG2; [1]): 717
